{"source": "ChEMBL document CHEMBL1155946", "about": "“Design, synthesis and biological evaluation of glutathione peptidomimetics as components of anti-Parkinson prodrugs” (J Med Chem, 2008)", "key": {"[1]": {"system": "MDCK", "assay": "Inhibition of [3H]glutathione uptake at glutathione transporter in MDCK cells at 10 nM to 1000 nM by HPLC", "assay_type": "cell-based", "settings": "Canis lupus familiaris"}, "[2]": {"assay": "Metabolic stability in rat brain at 37 degC", "assay_type": "ADME, tissue-based"}, "[3]": {"assay": "Metabolic stability in rat plasma at 37 degC", "assay_type": "ADME, cell-free"}, "[4]": {"assay": "Stability in buffer solution at pH 7.2"}}, "note": "Calls of active or inactive are those of the source. The rule behind the calls is not given here."}
{"smiles": "N[C@@H](CNC(=O)N[C@@H](CSSCC(=O)C(=O)NCCc1ccc(O)c(O)c1)C(=O)NCC(=O)O)C(=O)O", "values": [{"measurement": "Activity", "setting": "[1]", "value": "Active"}, {"measurement": "half-life", "setting": "[2]", "value": 6, "unit": "h"}, {"measurement": "half-life", "setting": "[3]", "value": 3, "unit": "h"}, {"measurement": "half-life", "setting": "[4]", "value": "> 12", "unit": "h"}]}
{"smiles": "N[C@@H](CNC(=O)N[C@@H](CSSCC(=O)C(=O)NC12CC3CC(CC(C3)C1)C2)C(=O)NCC(=O)O)C(=O)O", "values": [{"measurement": "Activity", "setting": "[1]", "value": "Active"}]}
